# Laboratory results taken from patent US20250288624A1, “LONG-TERM STABILIZATION, FORMULATION AND TABLETING OF LIVE MICROBIAL CELLS” (priority 2022, published 2025).
# Experiments:
# [1] = tested on: E. coli Nissle 1917; experiment: Validation of two-material combinations at 37° C.; format: cell-based, Escherichia coli; settings: in combination with melibiose, larger format
# Method: E. coli Nissle 1917 was prepared as described above (see “Vial-based viability validation”) with a few modifications: the flask culture was 2 L and incubated for 17-18 hours and the final cell suspension in PBS was set to an OD600 of 10-12.
# To freeze-dry, the cell suspension (12.5 mL) was mixed with the target material combination (37.5 mL), poured into rectangular 1-well plates, and placed into a tray freeze dryer with shelfs pre-cooled to −40° C. and on custom 0.25-inch aluminum pedestals to ensure heat transfer to the plates. Samples were dried as described above (see “High throughput pipeline”). […]
# The viability of the stored samples was assessed by hydrating the samples with 1 mL PBS, making 10-fold serial dilutions, spotting ˜1.5 uL of each dilution in triplicate onto LB agar in 1-well rectangular plates using a pin replicator (V&P Scientific, VP 407A), incubating at 37° C., and counting colonies on the strongest dilution that gives >1 colony per spot. Total CFU counts per sample were calculated by first dividing spot counts by the spotted volume and multiplying by the dilution factor and total rehydration volume, and then averaging across the three spotting replicates. Total CFU counts per mass were calculated by dividing the CFU counts per sample by the mass of the stored sample. Three independently stored replicate samples were analyzed as described. […]
# [2] = tested on: Escherichia coli Nissle 1917, Ensifer meliloti, Saccharomyces boulardii, Lactobacillus plantarum; experiment: High throughput pipeline for microbial material stabilizers (Viability Score after freeze-drying); format: cell-based; settings: for viability score: after freeze-drying and 24 hours at room temperature, across the 4 microorganisms, score 0 to 1
# Method: It was hypothesized that a synthetic extremophile that could survive in the dry state could then be enhanced to survive additional environmental insults using material formulation techniques applied to the dry powder (e.g., coating)^9. Therefore, a library was screened, composed primarily of materials generally recognized as safe (GRAS) by the Food and Drug Administration (FDA) for their ability to protect microbes through freeze-drying and survival at room temperature for 24 hours (Table 2). This materials library was applied to 4 microorganisms (Escherichia coli Nissle 1917, Ensifer meliloti, Saccharomyces boulardii, Lactobacillus plantarum) that span a wide range of phylogenetic backgrounds, are technologically important and genetically tractable. Each microorganism was mixed with each of the 260 materials at two different concentrations to give 2,080 microbial-material formulations.
# Microbial strains were precultured overnight in 5 mL liquid medium at the appropriate conditions (see above). The overnight culture was diluted 1:1000 fold into three replicates of 125 mL of fresh liquid medium in a flask and cultured for 24 hours. The optical density (OD600) of each replicate culture was recorded (typically 2-2.5 for E. coli Nissle 1917, E. meliloti, L. plantarum and 5-6 for S. boulardii) and the cells were pelleted at 3220 rcf for 15 minutes. The cell pellets were then resuspended in PBS (E. meliloti, L. plantarum, S. boulardii) or spent medium (E. coli Nissle 1917) to a final OD600 of 2.25 and used immediately.
# The material library was prepared by mixing each material with ultrapure water to the specified concentration (1×, 5×) in Table 2. The material solutions were arrayed in sealed deep well plates and kept at −20° C. until needed. On the day of use, the material plates were thawed at room temperature, vortexed well and centrifuged briefly.
# To freeze-dry, each replicate microbial cell suspension (25 uL) was mixed with the arrayed materials (75 uL) in batch into flat-bottom 96-well plates using a liquid handling robot (Tecan, EVO 150). […]
# (§1) The viability of the stored microbial-material combinations was determined by rehydrating in water, making 10-fold serial dilutions in PBS, plating onto the appropriate solid medium and quantifying the resulting colonies. […]
# (§2) To assign a Viability Score, using FIJI (imageJ), the 16-bit tiff plate images were programmatically separated into individual spot images, each spot was segmented, and several image attributes were measured (raw particle count, mean background value, mean segmented region value, segmented region area). […]
# [3] = tested on: Medicago truncatula A17; experiment: Plant nodulation assay with stabilized E. meliloti; format: in vivo; settings: E. meliloti formulated in the material, 50° C. shock for 24 hours, rehydrated, applied to seedlings
# Method: E. meliloti cultures were prepared as described above (see “High throughput pipeline for microbial material stabilizers”) and freeze-dried with the specified stabilizers following the 1-well plate method described in “Validation of two-material combinations”. The bagged, stabilized powders were exposed to 50° C. for 24 hours in a static incubator and then kept in the dark at 4° C. until used.
# Nodulation of Medicago truncatula A17 was assayed according to a protocol from Sadowsky et al. modified to growth in pouches^20-22. Specifically, M. truncatula A17 seeds (Noble Research Institute) were scarified by submerging in concentrated sulfuric acid for 8-9 minutes, washed 8× with sterile water, sterilized by submerging in 8.25% sodium hypochlorite for 90 seconds, washed 8× with sterile water, allowed to imbibe in sterile water for ˜1 hour, placed on 1% agar plates, sealed with parafilm and foil, vernalized at 4° C. in the dark for 5 days and germinated at 23° C. in the dark for 20 hours. […]
# The pouches were left undisturbed for 6 days, watered with 5 mL of 1/2×BNM as necessary and then inspected for nodules every other day. On day 12, the number of nodulated seedlings in each pouch was counted. The percent nodulated seedlings was calculated by dividing the number of nodulated seedlings by the total number of seedlings in the pouch.
# [4] = tested on: E. meliloti; experiment: Heat shock screen of material library at 50° C. for 24 hours (Viability Score); format: cell-based, Ensifer meliloti
# Method: FIG. 18. E. meliloti stabilizers against 24 hours at 50° C. Extended data of FIG. 8. E. meliloti was mixed with the material library at the 1×concentration, freeze dried, and exposed to 50° C. for 24 hours. The viability score was characterized as in FIG. 8, and the data is ordered by the viability score of the comparison values when stored at 23° C.
# E. meliloti is currently used as a seed inoculant prior to planting, however, there remains a need for improved stability of the microbial product present during formulation, storage, and seed inoculation, particularly when it comes to tolerance to elevated temperatures above 40° C.^28,29. […] Functional symbiosis was measured as percent of seedlings that successfully formed nodules. […]
# as §1, §2
smiles,measurement,setting,value
Cn1c(=O)c2c(ncn2C)n(C)c1=O [caffeine],stability of two-material formulation at extended storage times,[1],robust
O=S([O-])S(=O)(=O)[O-].[Na+].[Na+] [sodium metabisulfite],viability score,[2],0
OC[C@H]1O[C@H](O[C@H]2[C@H](O)[C@@H](O)C(O)O[C@@H]2CO)[C@H](O)[C@@H](O)[C@@H]1O (mixture of isomers) [maltose],nodulation of M. truncatula seedlings by stabilized E. meliloti,[3],successfully nodulate
same,material class in heat shock screen (synthetic thermotolerance),[4],optimal
[Na+].[OH-] [sodium hydroxide],viability score,[2],0
OC[C@H]1O[C@H](O[C@H]2O[C@H](CO)[C@@H](O)[C@H](O)[C@H]2O)[C@H](O)[C@@H](O)[C@@H]1O [trehalose],viability score,[2],measurable viability
OC[C@H]1O[C@H](OCC2O[C@@H](O)[C@H](O)[C@@H](O)[C@@H]2O)[C@H](O)[C@@H](O)[C@H]1O (stereo partly drawn) [melibiose],performance in stabilizer screen,[2]; E. coli Nissle 1917,best performing material
OC[C@H]1O[C@@](CO)(O[C@H]2O[C@H](CO)[C@@H](O)[C@H](O)[C@H]2O)[C@@H](O)[C@@H]1O [sucrose],nodulation of M. truncatula seedlings by stabilized E. meliloti,[3],successfully nodulate
same,material class in heat shock screen (synthetic thermotolerance),[4],optimal
